In publication PMC7770833, “Design, Synthesis, and Biological Evaluation of a Series of Oxazolone Carboxamides as a Novel Class of Acid Ceramidase Inhibitors” (Journal of Medicinal Chemistry, 2020):
Counter-ions that a name gives are not always drawn. Values belong to the molecule of their own block, whether it stands above or below them.

What was measured:
hAC [1] = target: T1, hAC (Homo sapiens, UniProt Q13510); assay: Fluorogenic hAC assay (hAC-enriched HEK293 lysate); format: biochemical; design: expressed in transfected cells; lysosome-enriched lysate; details: for hAC, IC50 (micromicrolar): supplementary CSV; for hAC inhibition, result in words: concentrations tested 1 and 10 μM where stated
T1 sequence (Q13510 22-395): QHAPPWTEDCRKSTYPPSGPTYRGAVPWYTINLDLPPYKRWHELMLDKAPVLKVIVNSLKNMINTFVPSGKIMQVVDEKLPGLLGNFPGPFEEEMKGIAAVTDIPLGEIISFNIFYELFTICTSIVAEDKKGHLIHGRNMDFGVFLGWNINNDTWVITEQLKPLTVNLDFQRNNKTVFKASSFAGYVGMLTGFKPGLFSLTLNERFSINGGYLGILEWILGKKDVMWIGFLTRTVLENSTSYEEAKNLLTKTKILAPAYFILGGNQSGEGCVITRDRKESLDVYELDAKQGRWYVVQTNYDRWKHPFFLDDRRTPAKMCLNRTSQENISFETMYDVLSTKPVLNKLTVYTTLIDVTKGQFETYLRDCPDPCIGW
Description: HEK293 cells stably expressing hAC (HEK293-hAC) were generated in our laboratory using a protocol, as previously described.[30] Briefly, hAC (variant 1 coding sequence, NM_177924) cDNA was purchased from Open Biosystems (clone ID 3923451) and subcloned in the mammalian expression vector pCDNA3.1, containing the neomycin resistance gene. HEK293 cells were transfected with the hAC-pCDNA3.1 construct using a JetPEI reagent (Polyplus Transfection, Illkirch-Graffenstaden, France) and following the manufacturer’s instructions. A stable cell line was generated by selection with G418 (1 mg/mL), and cell clones were derived by limited dilution plating. HEK293-hAC were grown in Dulbecco’s modified Eagle medium (DMEM) containing 10% fetal bovine serum (FBS), 1% glutamine, 1 mM sodium pyruvate, and 500 μg/mL G418. Cells were harvested and pellets were stored at −80 °C until lysosomal-enriched lysate preparation. Cells were suspended in 20 mM Tris HCl (pH 7.5) with 0.32 M sucrose, sonicated, and centrifuged at 800 × g for 30 min at 4 °C. Supernatants were then centrifuged at 12 000 × g for 30 min at 4 °C. Pellets were re-suspended in PBS (pH 7.4) and subjected to three freeze–thaw cycles at −80 °C. The suspension was finally centrifuged at 105 000 × g for 1 h at 4 °C, and protein concentration was measured in the supernatant with a bicinchoninic acid based protein assay. This hAC-enriched preparation allowed us to further optimize the enzymatic assay and to use small amounts of lysate (2 μg/well) at the 5 μM substrate (Rbm14-12) around its KM (KM = 5.0 μM).
The assay was performed in Optiplate 96-wells black plates, with each reaction well containing a mixture of 25 mM NaOAc buffer (pH 4.5) and a fixed amount of protein (2 μg) in a volume of 85 μL. After 10 min of pre-incubation with the test compounds (diluted 20× from DMSO stock solutions at different concentrations), the fluorogenic probe was added (diluted 40× from EtOH stock solution, final concentration 5 μM). After 3 h incubation at 37 °C, reactions were stopped with 50 μL of MeOH and 100 μL of a 2.5 mg/mL NaIO4 fresh solution in 100 mM glycine/NaOH buffer (pH 10.6). The plates were further incubated for 2 h at 37 °C in the dark and fluorescence intensities were measured at excitation/emission wavelengths of 355/460 nm. Negative control samples consisted of the same incubation mixture in the absence of protein-enriched extracts. Data were plotted as a function of compound concentrations. IC50 values were calculated by nonlinear regression analysis using GraphPad Prism 5 (GraphPad Software Inc., CA, USA) applying a standard slope curve fitting. The reported IC50 values are the mean of at least three independent experiments performed in three technical replicates.

hAC [2] = target: T1, hAC; assay: Michaelis–Menten analysis of hAC; format: biochemical; design: expressed in transfected cells; lysosome-enriched lysate
Description: Assay conditions for the kinetic studies were the same as those described for the fluorogenic hAC assay. The enzyme-enriched lysate (2 μg) was incubated with the following concentrations of substrate Rbm14-12: 0.25, 0.5, 1, 2.5, 5, 10, 12.5, 15 μM. Compound 12a was used at a final concentration of 25 and 100 nM. Initial velocities (V0) were determined and automatically fitted to the Michaelis–Menten equation to obtain kinetic parameters (KM and Vmax). The graph is representative of two independent experiments, each performed in three technical replicates. Graphs and data analysis were performed using GraphPad Prism 5 software (GraphPad Software Inc., CA, USA).

hAC [3] = details: cited from earlier work
rat AC (rAC) = details: cited from earlier work

SMILES: O=C(OCCCCc1ccccc1)n1cc(-c2ccccc2)oc1=O [Compound 13b, 4-Phenylbutyl-2-oxo-5-phenyl-oxazole-3-carboxylate]
hAC, IC50 (micromicrolar) (hAC [1]): not active up to 10 micromolar

SMILES: CCC(C)NC(=O)n1cc(-c2ccccc2)oc1=O (racemic) [Compound 12f, (±) 2-Oxo-5-phenyl-N-s-butyl-oxazole-3-carboxamide]
hAC inhibition, result in words (hAC [1]): not active up to 10 μM | hAC, IC50 (micromicrolar) (hAC [1]): not active up to 10 micromolar

SMILES: O=C(NCCCCc1ccccc1)n1cc(-c2ccccc2)oc1=O [Compound 12a, 2-Oxo-5-phenyl-N-(4-phenylbutyl)oxazole-3-carboxamide]
hAC Vmax (hAC [2]; 12a 25 nM): 18201 M/h | hAC Vmax (hAC [2]; 12a 100 nM): 12016 M/h | effect on Michaelis–Menten constant (KM) (hAC [2]; hAC-enriched lysates, in words): without influencing | effect on maximal catalytic velocity of AC (Vmax) (hAC [2]; hAC-enriched lysates, in words): concentration-dependent reduction

SMILES: O=C(NCCCCc1ccccc1)n1cnc2ccccc21 [Compound 3a]
IC50 (hAC [3]): 0.0025 µM

SMILES: CC(C)CNC(=O)n1cc(-c2ccc(F)c(C3CCN(C)CC3)c2)oc1=O [Compound 25f, 5-[4-Fluoro-3-(1-methyl-4-piperidyl)phenyl]-N-isobutyl-2-oxo-oxazole-3-carboxamide]
hAC inhibition, result in words (hAC [1]): complete loss in potency | hAC, IC50 (micromicrolar) (hAC [1]): not active up to 10 micromolar

SMILES: O=C(NCCCCc1ccccc1)N1C(=O)OC[C@H]1c1ccccc1 [Compound 15b, (4R)-(−)-2-Oxo-4-phenyl-N-(4-phenylbutyl)oxazolidine-3-carboxamide]
hAC, IC50 (micromicrolar) (hAC [1]): not active up to 10 micromolar

SMILES: O=C(NCCCCc1ccccc1)n1c(-c2ccccc2)coc1=O [Compound 8a, 2-Oxo-4-phenyl-N-(4-phenylbutyl)oxazole-3-carboxamide]
IC50 (hAC [1]; fluorogenic substrate Rbm14-12 5 μM, pH 4.5, mean of at least three experiments, read-out: hAC IC50 (μM)±SD): 0.007 ± 0.001 µM

SMILES: COc1nc2ccccc2n1C(=O)NCCCCc1ccccc1 [Compound 3b]
IC50 (hAC [3]): 0.0139 µM

SMILES: COCCCNC(=O)n1cc(-c2ccccc2)oc1=O [Compound 12d, N-(3-Methoxypropyl)-2-oxo-5-phenyl-oxazole-3-carboxamide]
hAC inhibition, result in words (hAC [1]): complete loss in potency | hAC, IC50 (micromicrolar) (hAC [1]): not active up to 10 micromolar

SMILES: CCCCCCNC(=O)n1cc(C(F)(F)F)c(=O)[nH]c1=O [Compound 1b]
IC50 (rat AC (rAC)): 0.012 µM

SMILES: O=C(NCCCCc1ccccc1)n1c(=O)oc2ccccc21 [Compound 4a]
IC50 (hAC [3]): 0.064 µM

SMILES: CCCCCCNC(=O)n1cc(F)c(=O)n(C(=O)OCC(C)C)c1=O [Compound 1c]
IC50 (rat AC (rAC)): 0.016 µM

SMILES: O=C(NCc1ccccc1)n1cnc2ccccc21 [Compound 3c]
IC50 (hAC [3]): 0.0225 µM

SMILES: CC(C)CNC(=O)n1c(=O)oc2cc(C3CCN(C)CC3)ccc21 [Compound 4d]
IC50 (hAC [3]): 0.166 µM

SMILES: CCCCCCNC(=O)n1cc(F)c(=O)[nH]c1=O [carmofur]
IC50 (rat AC (rAC)): 0.029 µM

SMILES: O=C(NCCCCc1ccccc1)n1c(=O)oc2cc(Cl)ccc21 [Compound 4c]
IC50 (hAC [3]): 0.033 µM

SMILES: CCCCCCNC(=O)n1cc(Cl)c(=O)[nH]c1=O [Compound 1a]
IC50 (rat AC (rAC)): 0.067 µM

SMILES: O=C(NCCCCc1ccccc1)n1c(=O)oc2cc(-c3ccc(F)cc3)ccc21 [Compound 4b]
IC50 (hAC [3]): 0.079 µM

SMILES: O=C(NCCCCc1ccccc1)N1C[C@@H](c2ccccc2)OC1=O [Compound 18b, (5R)-(+)-2-Oxo-5-phenyl-N-(4-phenylbutyl)oxazolidine-3-carboxamide]
hAC, IC50 (micromicrolar) (hAC [1]): not active up to 10 micromolar

SMILES: Cc1ccc(CNC(=O)n2cnc3ccccc32)cc1 [Compound 3d]
IC50 (hAC [3]): 0.0148 µM

Other lines, results leading:

hAC, IC50 (micromicrolar) (hAC [1]): not active up to 10 micromolar
SMILES: O=C(CCCCCc1ccccc1)n1cc(-c2ccccc2)oc1=O [Compound 13c, 5-Phenyl-3-(6-phenylhexanoyl)oxazol-2-one]

hAC, IC50 (micromicrolar) (hAC [1]): not active up to 10 micromolar
SMILES: CN1CCC(c2cc(F)ccc2-c2c[nH]c(=O)o2)CC1 [Compound 31c, 5-[4-Fluoro-2-(1-methyl-4-piperidyl)phenyl]-3H-oxazol-2-one]

hAC IC50 (μM)±SD (hAC [1]; fluorogenic substrate Rbm14-12 5 μM, pH 4.5, mean of at least three experiments): submicromolar
SMILES: O=C(NCCCCc1ccccc1)n1cc(-c2ccc(F)cc2)oc1=O [Compound 12j, 5-(4-Fluorophenyl)-2-oxo-N-(4-phenylbutyl)oxazole-3-carboxamide]

hAC, IC50 (micromicrolar) (hAC [1]): not active up to 10 micromolar
SMILES: CN(CCCCc1ccccc1)C(=O)n1cc(-c2ccccc2)oc1=O [Compound 13a, N-Methyl-2-oxo-5-phenyl-N-(4-phenylbutyl)oxazole-3-carboxamide]

hAC, IC50 (micromicrolar) (hAC [1]): not active up to 10 micromolar
SMILES: O=C(Nc1ccccc1)n1cc(-c2ccccc2)oc1=O [Compound 12g, 2-Oxo-N,5-diphenyl-oxazole-3-carboxamide]

hAC, IC50 (micromicrolar) (hAC [1]): not active up to 10 micromolar
SMILES: O=c1[nH]cc(-c2ccccc2)o1 [Compound 11a, 5-Phenyl-3H-oxazol-2-one]

hAC, IC50 (micromicrolar) (hAC [1]): not active up to 10 micromolar
SMILES: O=C(NCCCCc1ccccc1)N1C(=O)OC[C@@H]1c1ccccc1 [Compound 15a, (4S)-(+)-2-Oxo-4-phenyl-N-(4-phenylbutyl)oxazolidine-3-carboxamide]

hAC, IC50 (micromicrolar) (hAC [1]): not active up to 10 micromolar
SMILES: O=C(NCCCCc1ccccc1)N1C[C@H](c2ccccc2)OC1=O [Compound 18a, (5S)-(−)-2-Oxo-5-phenyl-N-(4-phenylbutyl)oxazolidine-3-carboxamide]

hAC inhibition, result in words (hAC [1]): complete loss in potency | hAC, IC50 (micromicrolar) (hAC [1]): not active up to 10 micromolar
SMILES: CC(C)CNC(=O)n1cc(-c2ccc(F)cc2C2CCN(C)CC2)oc1=O [Compound 32c, 5-[4-Fluoro-2-(1-methyl-4-piperidyl)phenyl]-N-isobutyl-2-oxo-oxazole-3-carboxamide Hydrochloride]
